Like-named read-outs stand apart in the source and are kept apart here.

A word on the IC50: it is the midpoint of a concentration-inhibition curve.

This experiment concerns human multiple myeloma cell line, OPM-2. As to the kind of experiment: Cell viability assay (OPM-2 10 FBS), CellTiter-Glo. Format: cell-based. In a few lines: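 Serially diluted test compounds are incubated 16 h with cells (3000/well) in RPMI 1640 supplemented with 10% FBS. Viability is then measured by luminescence and IC50 calculated by 4-parameter logistic fit.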
(In general: ATP-based viability assays read luminescence as a measure of living cells.)

[1] abbreviates: Homo sapiens, OPM-2, 16 h, read-out: OPM-2 10% FBS IC50 IP, OPM-2 cells, 10% FBS, 16 h, CellTiter-Glo.
The mark [2] stands for this setting: read-out: OPM-2 10% FBS IC50 IP, OPM-2 cells, 10% FBS, 16 h incubation.

`C[C@@H]1[C@@H](C)C/C=C/[C@](O)(C#CCCc2ccccn2)[C@@H]2CC[C@H]2CN2C[C@@]3(CCCc4cc(Cl)ccc43)COc3ccc(cc32)C(=O)NS1(=O)=O` [Example 100455, (1S,3′R,6′R,7′R,8′E,11′S,12′R)-6-chloro-7′-hydroxy-11′,12′-dimethyl-7′-(4-(2-pyridinyl)-1-butyn-1-yl)-3,4-dihydro-2H,15′H-spiro[naphthalene-1,22′-[20]oxa[13]thia[1,14]diazatetracyclo [14.7.2.0~3,6~.0~19,24~]pentacosa[8,16,18,24]tetraen]-15′-one 13′,13′-dioxide]: the IC50 under setting [1] came out at 140 nM.

Take `C[C@@H]1[C@@H](C)CCC[C@@](O)(CN2CCN3CCOC[C@@H]3C2)[C@@H]2CC[C@H]2CN2C[C@@]3(CCCc4cc(Cl)ccc43)COc3ccc(cc32)C(=O)NS1(=O)=O` [Example 7, (1S,3′R,6′R,7′S,11′S,12′R)-6-CHLORO-7′-((9AS)-HEXAHYDROPYRAZINO [2,1-C][1,4]OXAZIN-8(1H)-YLMETHYL)-7′-HYDROXY-11′,12′-DIMETHYL-3,4-DIHYDRO-2H, 15′H-SPIRO[NAPHTHALENE-1,22′-[20]OXA[13]THIA[1,14]DIAZATETRACYCLO[14.7.2.0-3,6˜.0˜19,24˜]PENT ACOSA[16,18,24]TRIEN]-15′-ONE 13′,13′-DIOXIDE]: under setting [2], the IC50 is 25 nM. Still for that read-out and setting: in the case of `CCO[C@]1(CN2CCN3CCOC[C@@H]3C2)CCC[C@H](C)[C@@H](CCOC)S(=O)(=O)NC(=O)c2ccc3c(c2)N(C[C@@H]2CC[C@H]21)C[C@@]1(CCCc2ccccc21)CO3` [Example 517, (1S,3′R,6′R,7′R,11′S,12′R)-7′-ethoxy-7′-((9aS)-hexahydropyrazino[2,1-c][1,4]oxazin-8(1H)-ylmethyl)-12′-(2-methoxyethyl)-11′-methyl-3,4-dihydro-2H, 15′H-spiro[naphthalene-1,22′-[20]oxa[13]thia[1,14]diazatetracyclo[14.7.2.0-3,6˜.0˜19,24˜]pentacosa[16,18,24]trien]-15′-one 13′,13′-dioxide] it was 252 nM. Turning to `CO[C@@]1(CC(=O)NC(C)(C)C(=O)O)/C=C/C[C@H](C)[C@@H](C)S(=O)(=O)NC(=O)c2ccc3c(c2)N(C[C@@H]2CC[C@H]21)C[C@@]1(CCCc2cc(Cl)ccc21)CO3` [Example 100546, N-(((1S,3′R,6′R,7′S,8′E,11′S,12′R)-6-chloro-7′-methoxy-11′,12′-dimethyl-13′,13′-dioxido-15′-oxo-3,4-dihydro-2H-spiro[naphthalene-1,22′-[20]oxa[13]thia[1,14]diazatetracyclo [14.7.2.0~3,6~.0~19,24~]pentacosa[8,16,18,24]tetraen]-7′-yl)acetyl)-2-methylalanine], the half-maximal inhibitory concentration (IC50) under setting [1] is 440 nM.

As to `CCO[C@]1(CN2CCN(C3COC3)CC2)/C=C/C[C@H](C)[C@@H](C)S(=O)(=O)NC(=O)c2ccc3c(c2)N(C[C@@H]2CC[C@H]21)C[C@@]1(CCCc2cc(Cl)ccc21)CO3` [Example 2, (1 S,3′R,6′R,7′R,8′E,11′S,12′R)-6-chloro-7′-ethoxy-11′,12′-dimethyl-7′-((4-(3-oxetanyl)-1-piperazinyl)methyl)-3,4-dihydro-2H, 15′H-spiro[naphthalene-1,22′-[20]oxa[13]thia[1,14]diazatetracyclo[14.7.2.0-3,6˜.0˜19,24˜]pentacosa[8,16,18,24]tetraen]-15′-one 13′,13′-dioxide], where the note is “Homo sapiens, OPM-2, 16 h, read-out: OPM-2 10% FBS IC50 IP, OPM-2 cells, 10% FBS, 16 h incubation”, the IC50 was determined as 76 nM. For the compound `C[C@@H]1[C@@H](C)CCC[C@@](O)(CC(=O)N2CCC2)[C@@H]2CC[C@H]2CN2C[C@@]3(CCCc4cc(Cl)ccc43)COc3ccc(cc32)C(=O)NS1(=O)=O` [Example 100144, (1S,3′R,6′R,7′R,11′S,12′R)-7′-(2-(1-azetidinyl)-2-oxoethyl)-6-chloro-7′-hydroxy-11′,12′-dimethyl-3,4-dihydro-2H,15′H-spiro[naphthalene-1,22′-[20]oxa[13]thia[1,14]diazatetracyclo [14.7.2.0~3,6~.0~19,24~]pentacosa[16,18,24]trien]-15′-one 13′,13′-dioxide], the IC50 (read-out: OPM-2 10% FBS IC50 IP, OPM-2 cells, 10% FBS, 16 h, CellTiter-Glo) is 208 nM.

For the origin of these results see patent US10821115B2, “Compounds that inhibit Mcl-1 protein” (priority 2017, dated 2020).
